Source: US20100048944A1, “INTERACTIONS OF HEDGEHOG AND LIVER X RECEPTOR SIGNALING PATHWAYS” (priority 2006, published 2010)

What was measured:
Assay type in all cases: cell-based
hedgehog pathway = assay: Net effect of LXR agonists on the hedgehog pathway
Text: Thus, GW3965 is a hedgehog-inhibiting LXR agonist. […] Thus, 22(R)-hydroxycholesterol is a hedgehog-inhibiting LXR agonist. […] The Oxy13 compound is discussed in international application PCT/US2007/05073, which is hereby incorporated by reference.
A known hedgehog agonist is contacted with a model cell in an amount known to induce a hedgehog pathway response or hedgehog signaling response in the cell. Any cell that responds to a hedgehog agonist and an LXR agonist can be used as a model cell. The compound is then tested with an assay to measure the level of hedgehog activation or hedgehog signaling. One of skill in the art would know how to select an assay and conduct an assay to measure the level of hedgehog activation or hedgehog signaling. The hedgehog agonist will cause the level of hedgehog activation or signaling to increase above that of a control cell. While the hedgehog agonist is in contact with the cell, the compound being tested is also contacted with the cell. The level of hedgehog activation or signaling is measured. If introducing the compound decreases the level of hedgehog activation or signaling a statistically significant amount below the level when only the hedgehog agonist was in contact with the cell, then the compound is deemed a hedgehog-inhibiting LXR agonist.

[1] = system: M2-10B4 marrow stromal cells; assay: Alkaline phosphatase activity in M2-10B4 marrow stromal cells; settings: for Effect on Shh-induced alkaline phosphatase activity / Alkaline Phosphatase Activity: M2-10B4 cells
Text: Alkaline phosphatase activity provides a measure of the osteogenic differentiation of cells. […] The oxysterol combination SS contains 22(S)-hydroxycholesterol and 20(S)-hydroxycholesterol in equal molar proportions. An indication of the molar concentration of the oxysterol combination SS refers to the molar concentration of each component of the combination.

LXRα and LXRβ = assay: Inhibition of Shh-induced signaling and alkaline phosphatase activity in siRNA-transfected cells; settings: for Ability to inhibit Shh-induced signaling and alkaline phosphatase activity: cells transfected with LXRα and LXRβ siRNA; for Ability to inhibit Shh-induced signaling and alkaline phosphatase activity: blocked or not: cells transfected with control scrambled siRNA
Text: Small interfering RNA (siRNA) to LXRα and LXRβ caused an 80-90% inhibition of mRNA expression for these genes, as well as inhibition of ligand-induced expression of LXR target genes, ATP-binding cassette (ABC) transporter proteins ABCA1 and ABCG1.

marrow stromal cells = assay: Osteogenic differentiation of marrow stromal cells; settings: for Effect on oxysterol-induced osteogenic differentiation: marrow stromal cells
Method: Certain osteogenic oxysterols, such as 20(S)-hydroxycholesterol (20S), induce the osteogenic differentiation of marrow stromal cells by activating the hedgehog signaling pathway. […] Thus, LXR activation can interfere with osteogenic differentiation induced by the activation of hedgehog signaling.
When treated with from 1-10 μM of GW3965 for 8 days, GW3965 inhibited Shh-induced alkaline phosphatase activity.

M2-10B4 cells = assay: Shh-induced osteocalcin mRNA expression in M2-10B4 cells; settings: 3 days, 1 μM to 10 μM, relative to Shh alone
[2] = system: C3H10T½ mouse embryonic fibroblasts; assay: Osteocalcin expression in C3H10T½ cells; settings: 1-10 μM
[3] = system: C3H10T½ mouse embryonic fibroblasts; assay: Alkaline phosphatase activity in C3H10T½ cells; settings: 1-10 μM
Gli-1 = assay: Q-RT-PCR expression of hedgehog target gene Gli-1 in M2-10B4 cells
Method: (§1) Activation or inhibition of the hedgehog pathway was assessed by extracting RNA from test cells and using quantitative real time PCR (Q-RT-PCR) to measure the expression of the hedgehog target genes, Gli-1 and Patched (Ptch). […] Expression of Gli-1 and Patched (Ptch) was measured after 72 hours of treatment. FIGS. 2A and 2B present the results of the study. Results from a representative experiment are shown as the mean of triplicate determinations±SD, and expressed as fold induction over control untreated cells.

[4] = system: Gli-luciferase reporter construct (8Xgli); assay: Gli-luciferase reporter assay in M2-10B4 cells
Method: Activation or inhibition of the hedgehog pathway was assessed by measuring Gli-reporter activity. This provided a direct indication of the activation or inhibition of the hedgehog pathway. A first set of marrow stromal cells, M2-10B4, were transfected with a Gli-luciferase reporter construct (8Xgli) and a second set of M2-10B4 were transfected with an empty reporter construct without Gli response elements (pGL3b). […] Gli-luciferase reporter activity was tested after 48 hours of treatment. FIG. 1 presents the results of the study. Results from a representative experiment are shown as the mean of triplicate determinations±SD, and expressed as fold induction over control untreated cells.

Patched (Ptch) = assay: Q-RT-PCR expression of hedgehog target gene Patched (Ptch) in M2-10B4 cells
Method: as §1

[5] = 72 hours, SS 5 μM + TO901317 5 μM
[6] = 72 hours, SS 5 μM + TO901317 10 μM
[7] = 72 hours, Shh 100 ng/mL + TO901317 5 μM
[8] = 72 hours, Shh 100 ng/mL + TO901317 10 μM

Structure (SMILES): C[C@H](CCCC(C)(C)O)[C@H]1CC[C@H]2[C@@H]3CC=C4C[C@@H](O)CC[C@]4(C)[C@H]3CC[C@]12C [25-hydroxycholesterol]
- Net effect on the hedgehog pathway (hedgehog pathway): leaves the hedgehog pathway active

Structure (SMILES): C=C(C)CCC[C@](C)(O)C1CCC2C3CC=C4CC(O)CC[C@]4(C)C3CC[C@@]21C (stereo partly drawn) [Oxy13]
- Net effect on the hedgehog pathway (hedgehog pathway): activating the hedgehog pathway

Structure (SMILES): CC(C)CC[C@@H](O)[C@@H](C)[C@H]1CC[C@H]2[C@@H]3CC=C4C[C@@H](O)CC[C@]4(C)[C@H]3CC[C@]12C [22(R)-hydroxycholesterol]
- Net effect on the hedgehog pathway (hedgehog pathway): inhibiting the hedgehog pathway

Structure (SMILES): CC(C)CCC[C@](C)(O)[C@H]1CC[C@H]2[C@@H]3CC=C4C[C@@H](O)CC[C@]4(C)[C@H]3CC[C@@]21C [20(S)-hydroxycholesterol]
- Net effect on the hedgehog pathway (hedgehog pathway): activating the hedgehog pathway
- Induction of alkaline phosphatase activity ([1]; marrow stromal cells M2-10B4, oxysterol alone): induce alkaline phosphatase activity

Structure (SMILES): O=C(O)Cc1cccc(OCCCN(Cc2cccc(C(F)(F)F)c2Cl)CC(c2ccccc2)c2ccccc2)c1 [GW3965, 3-[3-[[[2-chloro-3-(trifluoromethyl)phenyl]methyl](2,2-diphenylethyl)amino]propoxy]benzeneacetic acid]
- Net effect on the hedgehog pathway (hedgehog pathway): inhibiting the hedgehog pathway
- Effect on Shh-induced alkaline phosphatase activity ([1]; 8 days, 1-10 μM): inhibited
- Ability to inhibit Shh-induced signaling and alkaline phosphatase activity (LXRα and LXRβ): blocked
- Ability to inhibit Shh-induced signaling and alkaline phosphatase activity: blocked or not (LXRα and LXRβ): not
- Effect on Shh-induced osteogenic differentiation (marrow stromal cells; M2-10B4 marrow stromal cells): inhibited
- Effect on oxysterol-induced osteogenic differentiation (marrow stromal cells): block

Structure (SMILES): O=S(=O)(c1ccccc1)N(CC(F)(F)F)c1ccc(C(O)(C(F)(F)F)C(F)(F)F)cc1 [TO901317]
- Net effect on the hedgehog pathway (hedgehog pathway): inhibiting the hedgehog pathway
- Effect on Shh-induced osteocalcin mRNA expression (M2-10B4 cells): inhibited
- Effect on Shh-induced alkaline phosphatase activity ([1]; 3 days, concentrations as low as 1 μM): inhibited
- Alkaline Phosphatase Activity ([1]; SS 5 μM + TO901317 5 μM): 198 ± 17 units/mg protein ± SD
- Alkaline Phosphatase Activity ([1]; SS 5 μM + TO901317 10 μM): 61 ± 12 units/mg protein ± SD
- Alkaline Phosphatase Activity ([1]; Shh 50 ng/ml + TO901317 5 μM): 3±2 units/mg protein ± SD
- Ability to inhibit Shh-induced signaling and alkaline phosphatase activity (LXRα and LXRβ): blocked
- Ability to inhibit Shh-induced signaling and alkaline phosphatase activity: blocked or not (LXRα and LXRβ): not
- Effect on osteocalcin expression [2]: inhibited
- Effect on alkaline phosphatase activity [3]: inhibited
- Gli-1 expression (Gli-1; [5]): about 8 fold induction over control un
- Gli-1 expression (Gli-1; [6]): about 7 fold induction over control un
- Gli-1 expression (Gli-1; [7]): about 7 fold induction over control un
- Gli-1 expression (Gli-1; [8]): about 3 fold induction over control un
- Gli-1 expression (Gli-1; TO901317 alone, 5 μM or 10 μM): less than the control cells
- Gli-luciferase reporter activity ([4]; 48 hours, SS 5 μM + TO901317 5 μM): about 2.5 fold induction over control un
- Gli-luciferase reporter activity ([4]; 48 hours, SS 5 μM + TO901317 10 μM): about the same level as of the control cells
- Gli-luciferase reporter activity ([4]; 48 hours, Shh 200 ng/mL + TO901317 5 μM): about the same level as of the control cells
- Gli-luciferase reporter activity ([4]; TO901317 alone, 5 μM or 10 μM): less than the control cells
- Effect on oxysterol-induced osteogenic differentiation (marrow stromal cells): block
- Ptch expression (Patched (Ptch); [5]): about 6 fold induction over control un
- Ptch expression (FIG. 2B; sentence prints Gli-1 expression) (Patched (Ptch); [6]): about 4 fold induction over control un
- Ptch expression (Patched (Ptch); [7]): about the same level as that of the control cells
- Ptch expression (Patched (Ptch); [8]): about the same level as that of the control cells
- Ptch expression (Patched (Ptch); TO901317 alone, 5 μM or 10 μM): about the same as the control cells
